Measured values taken from patent US11000568B2, “Means and methods for treating copper-related diseases” (HELMHOLTZ ZENTRUM MÜNCHEN—DEUTSCHES FORSCHUNGSZENTRUM FÜR …, priority 2015, dated 2021).
Numbered stars: 1 amine (or outer) side, 2 acyl side, 3 side chain; on linkers, the order of the positions; unused ones are H or OH. Bridge positions count the residues as written; N and C are the ends. Square brackets hold non-standard residues; d marks the D form. Peptide text beside a SMILES is read from it. * marks the point of attachment. X2 = O=C1OC(C2CCCN2[*:1])=NC1C(=S)NC(CO)C(=O)[*:2]; X1 = CC(C)CC(=O)C1=NC(C(=S)NCC(=O)*)C(=O)O1

How the values were obtained:
[1] = test system: LPP−/− mitochondria; test: Chelator treatment of freshly isolated copper burdened LPP−/− mitochondria (copper extraction); design: species or system rat; details: 2 mM each, 30 min incubation
[2] = test system: HepG2 cells; test: Cellular de-coppering of HepG2 cells (ICP-OES); type: cell-based
Procedure: HepG2 cells were kept in MEM with 2% FCS. […] Therefore, Zn-MB, generated by preparing a 20 mM MB solution and adding an equimolar concentration of Zn solution under pH control, was used in cell culture experiments.
To determine the cellular de-coppering efficiency of MB, cells were pretreated with 2% FCS containing medium or 15 μM copper-histidine for 24 h and subsequently subjected to a 24 h treatment with 500 μM MB. Thereafter, cells were washed two times and counted. Copper in 2.5×10^6 cells was determined by ICP-OES after wet ashing of samples with 65% nitric acid.
Copper in liver homogenates, cell lysates and mitochondrial preparations were analyzed by ICP-OES (Ciros Vision, SPECTRO Analytical Instruments GmbH) after wet ashing of samples with 65% nitric acid (Zischka et al., log. cit.).

CSCCC(NC(=O)C1CSSCC(NC(=O)C(CO)NC(=O)CNC(=S)C2N=C(C(=O)CC(C)C)OC2=O)C(=O)NC(Cc2ccc(O)cc2)C(=O)N2CCCC2C2=NC(C(=O)O2)C(=S)NC(CO)C(=O)N1)C(=O)O (stereo not shown) [MB] (X1-SCY[X2]CM-OH; disulfide 2-5; configuration not given here)
copper associated with LPP−/− mitochondria [1]: rapidly decreased copper
de-coppering of copper preloaded HepG2 cells ([2]; 24 h MB treated vs untreated control): highly efficiently de-coppered
reduction of copper in HepG2 cells ([2]; basic copper load, 24 h 500 μM MB (Zn-MB used in cell culture)): 50%
reduction of copper in HepG2 cells ([2]; preloaded with 15 μM copper-histidine 24 h, then 24 h 500 μM MB): 50%
